# Measurements published in BindingDB's records for doi:10.7270/Q25H7DRT (Nmmlsc, 2010).
# Target: T1, Citrate synthase, peroxisomal [1-24] (Saccharomyces cerevisiae, UniProt P08679)
# T1 construct: 1-24
# Assay: CIT2-GFP expression modulators in yeast, dose response, flow cytometry, MLPCN hits (AID 2744)
# T1 sequence (P08679 1-24): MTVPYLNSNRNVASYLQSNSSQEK
row,EC50,Compound
1,> 33 µM,ClC(Cl)(c1nnnn1-c1ccccc1)c1nnnn1-c1ccccc1 [SMR000173835]
2,> 33 µM,O=C(Nc1ccccc1)ON=C1CCCC1 [cyclopentanone O-(anilinocarbonyl)oxime]
